From PubChem BioAssay AID248 (DTP/NCI, 2004)
Several values for one entry are separate records, joined by “and”; a condition that tells them apart may be missing. Identical values can stand only once. Toxic doses and inconclusive results are not listed.

System: L1210 leukemia ip in BDF1 mice, survival T/C
Assay: NCI In Vivo Anticancer Drug Screen. Data for tumor model L1210 Leukemia (intraperitoneal) in B6D2F1 (BDF1) mice
Settings: endpoint: mean survival time, higher = longer survival
Outline: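 Ratio derived from survival: compound-dosed mice over vehicle-dosed mice, all bearing a transplantable tumor.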

[1] = dose: 100.0 mg/kg/injection, schedule: Q04DX003 (ip), vehicle: saline with Tween-80
[2] = dose: 200.0 mg/kg/injection, schedule: Q04DX003 (ip), vehicle: saline with Tween-80
[3] = dose: 100.0 mg/kg/injection, schedule: Q04DX003 (ip), vehicle: other
[4] = dose: 200.0 mg/kg/injection, schedule: Q04DX003 (ip), vehicle: other
[5] = dose: 400.0 mg/kg/injection, schedule: Q04DX003 (ip), vehicle: other
[6] = dose: 100.0 mg/kg/injection, schedule: Q01DX001 (ip), vehicle: Klucel (hydroxypropylcellulose) (HPC)
[7] = dose: 100.0 mg/kg/injection, schedule: Q01DX009 (ip), vehicle: Klucel (hydroxypropylcellulose) (HPC)
[8] = dose: 200.0 mg/kg/injection, schedule: Q01DX001 (ip), vehicle: Klucel (hydroxypropylcellulose) (HPC)
[9] = dose: 200.0 mg/kg/injection, schedule: Q01DX009 (ip), vehicle: Klucel (hydroxypropylcellulose) (HPC)
[10] = dose: 100.0 mg/kg/injection, schedule: Q04DX003 (ip), vehicle: Klucel (hydroxypropylcellulose) (HPC)
[11] = dose: 200.0 mg/kg/injection, schedule: Q04DX003 (ip), vehicle: Klucel (hydroxypropylcellulose) (HPC)
[12] = dose: 400.0 mg/kg/injection, schedule: Q04DX003 (ip), vehicle: Klucel (hydroxypropylcellulose) (HPC)

**Q.** What does the source list for `CS(=O)(=O)OCCCOS(C)(=O)=O`?
**A.** T/C (dose: 9.37 mg/kg/injection, schedule: Q01DX009 (ip), vehicle: Klucel (hydroxypropylcellulose) (HPC)): 101 % of control; T/C (dose: 18.75 mg/kg/injection, schedule: Q01DX009 (ip), vehicle: Klucel (hydroxypropylcellulose) (HPC)): 102 % of control; T/C (dose: 37.5 mg/kg/injection, schedule: Q01DX009 (ip), vehicle: Klucel (hydroxypropylcellulose) (HPC)): 106 % of control; T/C (dose: 75.0 mg/kg/injection, schedule: Q01DX009 (ip), vehicle: Klucel (hydroxypropylcellulose) (HPC)): 116 % of control; T/C (dose: 150.0 mg/kg/injection, schedule: Q01DX009 (ip), vehicle: Klucel (hydroxypropylcellulose) (HPC)): 90 % of control

**Q.** With `CC1(O)C=Cc2ccccc21` (stereo unspecified) as the compound, how does the T/C [1] read?
**A.** 100 % of control

**Q.** What about the T/C [2] of the same compound?
**A.** 95 % of control

**Q.** `CC(C)(c1ccccc1)C(C(=O)O)C(=O)O` was tested. Which T/C (dose: 75.0 mg/kg/injection, schedule: Q01DX001 (ip), vehicle: saline) did it give?
**A.** 98 % of control

**Q.** And the T/C (dose: 150.0 mg/kg/injection, schedule: Q01DX001 (ip), vehicle: saline)?
**A.** 98 % of control

**Q.** What about the T/C (dose: 300.0 mg/kg/injection, schedule: Q01DX001 (ip), vehicle: saline) of the same compound?
**A.** 102 % of control

**Q.** What does the source list for `O=NN(CCCl)C(=O)Nc1ccc(Oc2ccc(NC(=O)N(CCCl)N=O)cc2)cc1`?
**A.** T/C (dose: 375.0 mg/kg/injection, schedule: Q01DX001 (ip), vehicle: carboxymethylcellulose (CMC)): 192 % of control; T/C (dose: 500.0 mg/kg/injection, schedule: Q01DX001 (ip), vehicle: carboxymethylcellulose (CMC)): 198 % of control; T/C (dose: 750.0 mg/kg/injection, schedule: Q01DX001 (ip), vehicle: carboxymethylcellulose (CMC)): 190 % of control; T/C (dose: 1000.0 mg/kg/injection, schedule: Q01DX001 (ip), vehicle: carboxymethylcellulose (CMC)): 154 % of control and 246 % of control; T/C (dose: 1250.0 mg/kg/injection, schedule: Q01DX001 (ip), vehicle: carboxymethylcellulose (CMC)): 104 % of control; T/C (dose: 1500.0 mg/kg/injection, schedule: Q01DX001 (ip), vehicle: carboxymethylcellulose (CMC)): 122 % of control; T/C (dose: 2000.0 mg/kg/injection, schedule: Q01DX001 (ip), vehicle: carboxymethylcellulose (CMC)): 86 % of control

**Q.** `O=C1CCCCCCCS(=O)(=O)C1` was tested. Which T/C (dose: 75.0 mg/kg/injection, schedule: Q01DX001 (ip), vehicle: carboxymethylcellulose (CMC)) did it give?
**A.** 112 % of control

**Q.** What about the T/C (dose: 150.0 mg/kg/injection, schedule: Q01DX001 (ip), vehicle: carboxymethylcellulose (CMC)) of the same compound?
**A.** 104 % of control

**Q.** With `Nc1cc(NC(=O)c2ccc(Cl)cc2)ccc1S(=O)(=O)O` as the compound, how does the T/C (dose: 100.0 mg/kg/injection, schedule: Q04DX002 (ip), vehicle: saline with Tween-80) read?
**A.** 104 % of control

**Q.** What about the T/C (dose: 200.0 mg/kg/injection, schedule: Q04DX002 (ip), vehicle: saline with Tween-80) of the same compound?
**A.** 93 % of control

**Q.** And the T/C (dose: 400.0 mg/kg/injection, schedule: Q04DX002 (ip), vehicle: saline with Tween-80)?
**A.** 93 % of control

**Q.** What does the source list for `COC(=O)CCc1ccc(OC)cc1`?
**A.** T/C [3]: 100 % of control; T/C [4]: 99 % of control; T/C [5]: 106 % of control

**Q.** How did the T/C (dose: 6.25 mg/kg/injection, schedule: Q01DX001 (ip), vehicle: saline with Tween-80) turn out when `CN(C)c1ccc(N2C(=O)C=CC2=O)cc1` was run?
**A.** 104 % of control

**Q.** And the T/C (dose: 12.5 mg/kg/injection, schedule: Q01DX001 (ip), vehicle: saline with Tween-80)?
**A.** 105 % of control

**Q.** Which results are given for `CCCCCCCCCC(=O)OCC(COC(=O)CCCCCCCCC)OC(=O)CCCCCCCCC`?
**A.** T/C (dose: 100.0 mg/kg/injection, schedule: Q01DX009 (sc), vehicle: olive oil, sesame oil, peanut oil): 103 % of control; T/C (dose: 100.0 mg/kg/injection, schedule: Q04DX003 (sc), vehicle: olive oil, sesame oil, peanut oil): 101 % of control; T/C (dose: 200.0 mg/kg/injection, schedule: Q01DX009 (sc), vehicle: olive oil, sesame oil, peanut oil): 101 % of control; T/C (dose: 200.0 mg/kg/injection, schedule: Q04DX003 (sc), vehicle: olive oil, sesame oil, peanut oil): 97 % of control; T/C (dose: 400.0 mg/kg/injection, schedule: Q01DX009 (sc), vehicle: olive oil, sesame oil, peanut oil): 104 % of control; T/C (dose: 400.0 mg/kg/injection, schedule: Q04DX003 (sc), vehicle: olive oil, sesame oil, peanut oil): 104 % of control

**Q.** `[N-]=[N+]=NS(=O)(=O)CCc1ccccc1` was tested. Which T/C [1] did it give?
**A.** 96 % of control

**Q.** And the T/C [2]?
**A.** 110 % of control

**Q.** And the T/C (dose: 400.0 mg/kg/injection, schedule: Q04DX003 (ip), vehicle: saline with Tween-80)?
**A.** 98 % of control

**Q.** `ClCCOCCOc1ccc(Cl)cc1` was tested. Which T/C (dose: 100.0 mg/kg/injection, schedule: Q04DX003 (ip), vehicle: acetone) did it give?
**A.** 98 % of control

**Q.** And the T/C (dose: 200.0 mg/kg/injection, schedule: Q04DX003 (ip), vehicle: acetone)?
**A.** 98 % of control

**Q.** What about the T/C (dose: 400.0 mg/kg/injection, schedule: Q04DX003 (ip), vehicle: acetone) of the same compound?
**A.** 91 % of control

**Q.** What does the source list for `COc1cc2c(c(OC)c1OC)-c1ccc(=O)c(OC)cc1[C@@H](NC(=O)CCl)CC2`?
**A.** T/C [6]: 94 % of control; T/C [7]: 103 % of control; T/C [8]: 98 % of control; T/C [9]: 103 % of control; T/C (dose: 400.0 mg/kg/injection, schedule: Q01DX001 (ip), vehicle: Klucel (hydroxypropylcellulose) (HPC)): 105 % of control

**Q.** How did the T/C (dose: 100.0 mg/kg/injection, schedule: Q01DX001 (ip), vehicle: saline with Tween-80) turn out when `COc1ccc(SC(=O)N(C)C)cc1` was run?
**A.** 98 % of control

**Q.** What about the T/C (dose: 200.0 mg/kg/injection, schedule: Q01DX001 (ip), vehicle: saline with Tween-80) of the same compound?
**A.** 94 % of control

**Q.** And the T/C (dose: 400.0 mg/kg/injection, schedule: Q01DX001 (ip), vehicle: saline with Tween-80)?
**A.** 98 % of control

**Q.** `Cc1cccc2c(Cl)c3cccc(C)c3nc12` was tested. Which T/C [7] did it give?
**A.** 96 % of control

**Q.** And the T/C [3]?
**A.** 95 % of control

**Q.** And the T/C [9]?
**A.** 93 % of control

**Q.** And the T/C [4]?
**A.** 94 % of control

**Q.** What about the T/C (dose: 400.0 mg/kg/injection, schedule: Q01DX009 (ip), vehicle: Klucel (hydroxypropylcellulose) (HPC)) of the same compound?
**A.** 102 % of control

**Q.** And the T/C [5]?
**A.** 97 % of control

**Q.** `Nc1nc(SCc2ccccc2)c2ncn(C3CCCO3)c2n1` (stereo unspecified) was tested. Which T/C (dose: 25.0 mg/kg/injection, schedule: Q01DX Z (ip), vehicle: methylcellulose (MC)) did it give?
**A.** 101 % of control

**Q.** And the T/C (dose: 50.0 mg/kg/injection, schedule: Q01DX Z (ip), vehicle: methylcellulose (MC))?
**A.** 120 % of control

**Q.** For `COc1cc(C(=O)Nc2ccccc2SC)cc(OC)c1OC`, which T/C (dose: 100.0 mg/kg/injection, schedule: Q04DX002 (ip), vehicle: Klucel (hydroxypropylcellulose) (HPC)) is on record?
**A.** 100 % of control

**Q.** What about the T/C (dose: 200.0 mg/kg/injection, schedule: Q04DX002 (ip), vehicle: Klucel (hydroxypropylcellulose) (HPC)) of the same compound?
**A.** 97 % of control

**Q.** What about the T/C (dose: 400.0 mg/kg/injection, schedule: Q04DX002 (ip), vehicle: Klucel (hydroxypropylcellulose) (HPC)) of the same compound?
**A.** 90 % of control

**Q.** `CC1CC(C#N)Nc2ccccc2N1` (stereo unspecified) was tested. Which T/C (dose: 50.0 mg/kg/injection, schedule: Q01DX001 (ip), vehicle: Klucel (hydroxypropylcellulose) (HPC)) did it give?
**A.** 109 % of control

**Q.** What about the T/C (dose: 50.0 mg/kg/injection, schedule: Q01DX009 (ip), vehicle: Klucel (hydroxypropylcellulose) (HPC)) of the same compound?
**A.** 96 % of control

**Q.** What about the T/C (dose: 50.0 mg/kg/injection, schedule: Q04DX003 (ip), vehicle: Klucel (hydroxypropylcellulose) (HPC)) of the same compound?
**A.** 98 % of control

**Q.** What about the T/C [6] of the same compound?
**A.** 106 % of control

**Q.** And the T/C [7]?
**A.** 93 % of control and 121 % of control

**Q.** And the T/C [10]?
**A.** 100 % of control and 104 % of control

**Q.** And the T/C [8]?
**A.** 104 % of control

**Q.** What about the T/C [9] of the same compound?
**A.** 86 % of control

**Q.** And the T/C [11]?
**A.** 96 % of control and 90 % of control

**Q.** And the T/C [12]?
**A.** 101 % of control

**Q.** `O=C1C=CC(=O)C1` was tested. Which T/C (dose: 2.25 mg/kg/injection, schedule: Q01DX009 (ip), vehicle: saline) did it give?
**A.** 111 % of control

**Q.** What about the T/C (dose: 2.25 mg/kg/injection, schedule: Q04DX003 (ip), vehicle: saline) of the same compound?
**A.** 97 % of control

**Q.** And the T/C (dose: 4.5 mg/kg/injection, schedule: Q01DX009 (ip), vehicle: saline)?
**A.** 106 % of control

**Q.** What about the T/C (dose: 4.5 mg/kg/injection, schedule: Q04DX003 (ip), vehicle: saline) of the same compound?
**A.** 98 % of control

**Q.** And the T/C (dose: 9.0 mg/kg/injection, schedule: Q04DX003 (ip), vehicle: saline)?
**A.** 96 % of control

**Q.** For `CCC(=O)Nc1cccc(C)c1C`, which T/C [7] is on record?
**A.** 93 % of control

**Q.** And the T/C [10]?
**A.** 102 % of control

**Q.** What about the T/C [9] of the same compound?
**A.** 106 % of control

**Q.** What about the T/C [11] of the same compound?
**A.** 102 % of control

**Q.** And the T/C [12]?
**A.** 95 % of control

**Q.** Which T/C (dose: 100.0 mg/kg/injection, schedule: Q01DX001 (sc), vehicle: steriod suspending solution) does the source give for `O=C1CCCC2C1CCC1C3CCC(O)CC3CCC21` (stereo unspecified) here?
**A.** 91 % of control

**Q.** And the T/C (dose: 200.0 mg/kg/injection, schedule: Q01DX001 (sc), vehicle: steriod suspending solution)?
**A.** 93 % of control

**Q.** And the T/C (dose: 400.0 mg/kg/injection, schedule: Q01DX001 (sc), vehicle: steriod suspending solution)?
**A.** 95 % of control
